Results on 3 compounds are retold here after ChEMBL document CHEMBL5465560, “Selectivity Literature for EUbOPEN Chemogenomic Library” (2024).

In experiment [1] the target is Non-receptor tyrosine-protein kinase TYK2 (Homo sapiens, UniProt P29597). Briefly: Selectivity interaction (Kinase panel (Z-LYTE Assay)) EUB0001632a TYK2. The following applies: at 10 µM.
Experiment [2] deals with MAP kinase-activated protein kinase 2 (Homo sapiens, UniProt P49137). Briefly: Selectivity interaction (Kinase panel (Z-LYTE Assay)) EUB0001632a MAPKAPK2. The following applies: at 10 µM.
Chain of MAP kinase-activated protein kinase 2 (P49137 whole entry, looked up): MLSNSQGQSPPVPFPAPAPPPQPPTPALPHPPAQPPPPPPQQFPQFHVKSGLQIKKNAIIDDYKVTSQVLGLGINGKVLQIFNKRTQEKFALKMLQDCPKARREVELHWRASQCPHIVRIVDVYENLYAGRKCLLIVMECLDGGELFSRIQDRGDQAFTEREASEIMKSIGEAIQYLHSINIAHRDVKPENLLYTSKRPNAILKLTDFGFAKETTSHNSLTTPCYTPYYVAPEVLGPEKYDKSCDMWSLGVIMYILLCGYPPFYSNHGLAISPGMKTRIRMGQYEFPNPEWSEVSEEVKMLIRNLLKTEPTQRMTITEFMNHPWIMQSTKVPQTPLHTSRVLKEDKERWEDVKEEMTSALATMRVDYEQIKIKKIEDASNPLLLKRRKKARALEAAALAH
In experiment [3] the test system is T1, Receptor-type tyrosine-protein kinase FLT3 (Homo sapiens), P36888 [D835H].
T1 sequence (whole entry): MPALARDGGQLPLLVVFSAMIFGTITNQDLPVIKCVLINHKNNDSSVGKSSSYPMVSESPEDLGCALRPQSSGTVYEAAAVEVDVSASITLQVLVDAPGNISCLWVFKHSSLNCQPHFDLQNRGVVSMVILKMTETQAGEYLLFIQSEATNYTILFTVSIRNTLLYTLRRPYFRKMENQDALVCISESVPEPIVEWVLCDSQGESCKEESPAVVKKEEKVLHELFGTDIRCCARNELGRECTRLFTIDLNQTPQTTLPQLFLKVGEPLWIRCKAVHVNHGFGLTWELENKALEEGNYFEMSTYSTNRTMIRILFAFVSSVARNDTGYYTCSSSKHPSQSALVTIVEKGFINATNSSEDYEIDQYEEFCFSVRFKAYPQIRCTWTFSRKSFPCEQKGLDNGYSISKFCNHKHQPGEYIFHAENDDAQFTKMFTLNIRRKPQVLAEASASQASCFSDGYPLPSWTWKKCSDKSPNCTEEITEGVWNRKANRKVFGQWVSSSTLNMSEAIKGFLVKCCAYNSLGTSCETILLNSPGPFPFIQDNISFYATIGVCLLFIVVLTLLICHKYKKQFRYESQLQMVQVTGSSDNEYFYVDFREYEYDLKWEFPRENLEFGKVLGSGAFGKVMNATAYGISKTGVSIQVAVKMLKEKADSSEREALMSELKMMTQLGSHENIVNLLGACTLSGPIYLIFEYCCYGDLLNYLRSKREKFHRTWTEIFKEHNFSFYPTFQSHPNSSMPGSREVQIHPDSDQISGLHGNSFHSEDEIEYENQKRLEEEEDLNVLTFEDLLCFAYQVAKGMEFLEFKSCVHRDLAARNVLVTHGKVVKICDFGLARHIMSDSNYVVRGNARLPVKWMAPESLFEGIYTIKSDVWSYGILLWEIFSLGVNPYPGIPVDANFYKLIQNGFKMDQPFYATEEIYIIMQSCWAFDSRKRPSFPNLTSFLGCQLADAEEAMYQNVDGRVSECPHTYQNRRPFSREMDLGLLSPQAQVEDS
Briefly: (§1) Selectivity interaction (KinomeScan (DiscoverX)) EUB0001049a FLT3. The following applies: at 1 µM.

Experiment [4] has as its target Receptor-type tyrosine-protein kinase FLT3 (Homo sapiens) (UniProt P36888). The experiment is described as §1. The following applies: at 1 µM.
Experiment [5] deals with T2, Cyclin-G-associated kinase (Homo sapiens) (UniProt O14976).
T2 sequence (whole entry): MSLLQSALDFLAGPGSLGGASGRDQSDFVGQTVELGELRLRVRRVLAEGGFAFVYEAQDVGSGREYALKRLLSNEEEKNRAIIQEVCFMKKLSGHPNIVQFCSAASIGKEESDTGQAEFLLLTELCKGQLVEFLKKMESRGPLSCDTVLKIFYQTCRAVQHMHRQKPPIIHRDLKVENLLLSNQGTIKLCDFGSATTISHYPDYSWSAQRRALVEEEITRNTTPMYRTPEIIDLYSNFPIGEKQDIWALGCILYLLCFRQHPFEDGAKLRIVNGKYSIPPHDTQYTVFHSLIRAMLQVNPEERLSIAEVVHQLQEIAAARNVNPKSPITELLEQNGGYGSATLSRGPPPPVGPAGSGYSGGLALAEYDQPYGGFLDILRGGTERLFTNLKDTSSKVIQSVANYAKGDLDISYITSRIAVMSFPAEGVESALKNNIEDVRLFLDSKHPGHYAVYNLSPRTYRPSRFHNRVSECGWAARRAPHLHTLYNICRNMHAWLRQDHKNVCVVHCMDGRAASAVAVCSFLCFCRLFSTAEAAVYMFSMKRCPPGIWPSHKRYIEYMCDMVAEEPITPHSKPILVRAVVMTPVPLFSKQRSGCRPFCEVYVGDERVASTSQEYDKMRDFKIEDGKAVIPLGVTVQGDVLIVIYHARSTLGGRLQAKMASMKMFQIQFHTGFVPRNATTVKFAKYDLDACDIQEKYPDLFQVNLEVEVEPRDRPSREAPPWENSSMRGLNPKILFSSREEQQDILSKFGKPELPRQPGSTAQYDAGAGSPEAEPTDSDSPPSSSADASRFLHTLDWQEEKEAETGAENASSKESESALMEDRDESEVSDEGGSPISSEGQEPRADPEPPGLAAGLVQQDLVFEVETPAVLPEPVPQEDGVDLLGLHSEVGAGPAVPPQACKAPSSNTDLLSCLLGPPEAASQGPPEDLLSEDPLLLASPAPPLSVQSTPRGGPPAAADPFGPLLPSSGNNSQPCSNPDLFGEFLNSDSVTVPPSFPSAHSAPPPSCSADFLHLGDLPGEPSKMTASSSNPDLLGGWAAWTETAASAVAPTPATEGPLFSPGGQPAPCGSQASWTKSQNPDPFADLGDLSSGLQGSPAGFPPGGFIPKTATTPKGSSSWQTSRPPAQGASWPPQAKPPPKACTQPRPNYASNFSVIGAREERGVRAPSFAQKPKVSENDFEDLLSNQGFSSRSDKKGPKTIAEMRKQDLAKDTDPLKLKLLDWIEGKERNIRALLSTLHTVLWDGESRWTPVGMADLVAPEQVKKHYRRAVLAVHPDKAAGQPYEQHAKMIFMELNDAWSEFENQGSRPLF
Briefly: Selectivity interaction (DSF assay) EUB0000229b GAK. In general terms: Differential scanning fluorimetry follows unfolding on heating by fluorescence.

Chain of Non-receptor tyrosine-protein kinase TYK2 (P29597 whole entry): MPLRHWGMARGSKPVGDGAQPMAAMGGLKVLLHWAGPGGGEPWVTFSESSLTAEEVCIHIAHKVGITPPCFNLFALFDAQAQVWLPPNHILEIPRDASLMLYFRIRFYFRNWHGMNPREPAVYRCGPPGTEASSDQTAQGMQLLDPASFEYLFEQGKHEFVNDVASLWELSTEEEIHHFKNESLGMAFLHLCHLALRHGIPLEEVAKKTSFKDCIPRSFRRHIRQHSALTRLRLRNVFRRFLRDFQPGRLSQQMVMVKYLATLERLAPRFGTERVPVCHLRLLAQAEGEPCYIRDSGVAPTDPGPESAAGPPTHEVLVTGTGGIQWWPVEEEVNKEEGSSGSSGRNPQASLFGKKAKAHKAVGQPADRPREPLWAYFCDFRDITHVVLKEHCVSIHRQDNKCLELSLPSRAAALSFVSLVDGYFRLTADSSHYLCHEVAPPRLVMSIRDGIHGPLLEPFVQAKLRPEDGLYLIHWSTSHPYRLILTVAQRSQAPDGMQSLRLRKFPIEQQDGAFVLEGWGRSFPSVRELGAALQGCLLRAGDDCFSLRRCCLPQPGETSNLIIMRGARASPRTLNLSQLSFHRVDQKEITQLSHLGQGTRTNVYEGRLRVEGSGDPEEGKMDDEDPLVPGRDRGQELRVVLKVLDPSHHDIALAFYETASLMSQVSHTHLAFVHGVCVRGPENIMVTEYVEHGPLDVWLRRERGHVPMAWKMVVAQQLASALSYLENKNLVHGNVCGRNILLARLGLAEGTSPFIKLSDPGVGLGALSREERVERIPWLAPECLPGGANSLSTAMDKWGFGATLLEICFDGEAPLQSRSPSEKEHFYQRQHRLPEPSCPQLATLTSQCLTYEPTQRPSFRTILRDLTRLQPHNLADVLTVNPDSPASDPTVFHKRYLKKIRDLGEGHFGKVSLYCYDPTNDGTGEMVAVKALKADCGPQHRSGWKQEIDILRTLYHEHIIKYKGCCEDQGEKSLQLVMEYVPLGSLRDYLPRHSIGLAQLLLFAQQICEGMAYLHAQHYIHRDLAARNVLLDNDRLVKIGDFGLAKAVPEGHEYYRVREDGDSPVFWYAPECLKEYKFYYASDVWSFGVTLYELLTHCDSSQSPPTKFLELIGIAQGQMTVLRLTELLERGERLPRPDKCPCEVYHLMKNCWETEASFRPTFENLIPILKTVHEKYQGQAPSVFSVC

On to `Cn1cc(-n2cnc3c(NCc4nc5cc(Cl)c(Cl)cc5[nH]4)nc(N4CCOCC4)nc32)cn1`, for which the % of control in experiment [1] is 2.01%; in experiment [2] it was -2.67%.

As for `COc1cc(Nc2nc(C)cc(-c3cnn4nc(OC)ccc34)n2)cc(C(F)(F)F)c1`, the % of control in experiment [3] is 93%; in experiment [4], 100%.

In experiment [5], `COc1cc(N(C)c2ccnc3ccc(C(F)(F)F)cc23)cc(OC)c1OC` returned a dTm of -0.3 K.
